The record followed here is the supplement of paper PMC11061612.

Assay in all cases: combination Emax (second highest fraction inhibited in the dose matrix, 72 h); higher = more inhibition; extreme values may be limits of the assay
For experiment [1], the system named is PANC-02-03 (Pancreatic Carcinoma). In short, it runs like this:
(§1)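 Cell lines in DMEM/F12 or RPMI with 10% FBS were plated in 1536-well plates, held 24 hours at 37°C, 5% CO2, then given two-drug dose matrices for 72 hours (DMSO typically 0.2%). Viability was read by CellTiter-Glo 2.0 luminescence and scaled as inhibition from 0 (vehicle wells) to 1 (blank wells). Combination Emax is the second-highest inhibition in the matrix; Bliss excess is observed combination effect minus expected EA + EB − EA·EB, EA and EB being single-agent effects.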

The test system of experiment [2] is KYSE-70 (Esophageal Squamous Cell Carcinoma). In short, it runs like this: as §1
Experiment [3] deals with FLO-1 (Esophageal Adenocarcinoma). The method in brief:
as §1

In experiment [4] the test system is SJRH30 (Rhabdomyosarcoma). The method in brief:
as §1

The test system of experiment [5] is LAMA-84 (Chronic Myelogenous Leukemia). In short, it runs like this: as §1
Experiment [6] has as its system NCI-H1755 (Lung Adenocarcinoma). In short, it runs like this: as §1

For the compound `CS(=O)(=O)CCNCc1ccc(-c2ccc3ncnc(Nc4ccc(OCc5cccc(F)c5)c(Cl)c4)c3c2)o1` [Lapatinib] + NC1(c2ccc(-c3nc4ccn5c(=O)[nH]nc5c4cc3-c3ccccc3)cc2)CCC1 [MK-2206] (first compound max 10 µM, 7x7, partner max 10 µM), the “combination Emax” value in experiment [1] was 0.643; in experiment [2] it was 0.613; in experiment [3] it was 0.793; in experiment [4], 0.914; in experiment [5], 0.642; in experiment [6], 0.88.
